Test results as given in patent EP1038532A1, “IMMUNOMODULATOR AND PHARMACEUTICAL COMPOSITIONS WITH ANTITUMOR PROPERTIES, AND A FOOD ADDITIVE” (Kaljuzhin, Oleg Vitallievich, priority 1997, dated 1998).

Columns and labels:
[1] = test system: lymphocytes in a mixed lymphocyte culture (MLC); experiment: Proliferation of lymphocytes in a mixed lymphocyte culture (MLC); assay type: cell-based; details: mean ± S.D. of six experiments, control 11.9±0.9
Source text: Each value in the table is the mean index of proliferation stimulation of lymphocytes in MLC ± S.D. of six independent experiments.

[2] = test system: mouse splenocytes; experiment: LPS-induced proliferation of mouse splenocytes; assay type: cell-based; details: LPS stimulation 1 µg/ml, mean ± S.D. of three experiments, control 3.4±0.2
Method: Each value in the table is the index of proliferation of lymphocytes in response to stimulation of 1 µg/ml under the influence of MDP derivatives (arithmetical mean ± S.D. of three independent experiments).

[3] = test system: IL-1; experiment: IL-1 production by peritoneal macrophages, read out by thymocyte proliferation; assay type: cell-based, C57BL/6 mouse; details: control 1.3±0.4
Source text: (§1) Each value in the table is the mean ± S.D. of three independent experiments.

[4] = test system: TNF; experiment: TNF production by peritoneal macrophages, read out by lysis of L929 cells; assay type: cell-based, C57BL/6 mouse; details: control 7±6
Source text: as §1

[5] = Distribution of 14C-labelled preparations in the water/chloroform model membrane; assay type: physicochemical
Source text: Marked differences in distribution of 14C-labelled preparations in the phases of this model "membrane" have been found. 64% of C7H15MDP was included in the water phase, and 36% of the preparation in the organic phase. At the same time, the water phase included only 28% of its lipophilic homologue, and the organic phase 72%.

[6] = cholesterol/phosphatidylcholine model lipid membrane
[7] = test system: human erythroleukemia K562 cells
[8] = test system: melanoma B16; experiment: Antitumor activity in the mouse melanoma B16 model; assay type: in vivo, C57BL/6 mice; details: for Inhibition of tumor growth: day 21
Method: (§2) Experimental procedures. Briefly, suspension of lymphoma EL-4 or melanoma B16 cells (10^6 cells) was injected subcutaneously into the footpad of C57BL/6 mice. Then mice underwent course of C7H15MDP treatment. Solution of the preparation in phosphate buffer saline (PBS) was administered i.v. or p.o. Single dosage for p.o. administration was of 1 mg/kg in weight, and of 0.5 mg/kg in weight when administered i.v. The preparation was administered twice a week during 3 weeks, beginning immediately after implantation of tumor cells. Besides, some tumor-bearing mice were treated with the preparation encapsulated in liposomes consisting of phosphatidylcholine:phosphatudylserine mixture (7:3).
(§3) Liposomal C7H15MDP in dose of 0.25 mg/kg was administered i.v. by the same schedule that was used with unencapsulated preparation.
(§4) Control mice were treated with PBS without active compound.
(§5) Antitumor effect was estimated using the following criteria: (1) prolongation of life-span, (2) inhibition of tumor growth.

[9] = test system: lymphoma EL-4; experiment: Antitumor activity in the mouse lymphoma EL-4 model; assay type: in vivo, C57BL/6 mice; details: for Inhibition of tumor growth: day 21
Method: as §2, §3, §4, §5

[10] = test system: lymphoma EL-4 or melanoma B16; experiment: Further antitumor trials in tumor-bearing mice (tumor type not specified); assay type: in vivo, C57BL/6 mice; details: treatment begun 1 week before tumor implantation
Method: as §2, with “Then mice underwent course of C7H15MDP treatment.” left out, “The preparation was administered twice a week during 3 weeks, beginning immediately after implantation of tumor cells.” left out
as §3
However, all methods of administration (p.o., i.v., liposomal i.v.) seem to be rational. Exact administration method is to be defined individually taking into account localization and type of tumor and other factors.

[11] = i.v., 0.5 mg/kg twice a week during 3 weeks
[12] = p.o., 1 mg/kg twice a week during 3 weeks

share of preparation included in the organic phase [5] [%]	share of preparation included in the water phase [5] [%]	time at which the preparation appeared in the second water phase [6] [h]	SMILES	mean index of proliferation stimulation of lymphocytes in MLC ([1]; 5 µM)	mean index of proliferation stimulation of lymphocytes in MLC ([1]; 10 µM)	mean index of proliferation stimulation of lymphocytes in MLC ([1]; 20 µM)	index of proliferation of lymphocytes ([2]; 5 µM)	index of proliferation of lymphocytes ([2]; 10 µM)	index of proliferation of lymphocytes ([2]; 20 µM)	Proliferation of tymocytes cultured with samples of IL-1 (index of proliferation) ([3]; 5 µM)	Proliferation of tymocytes cultured with samples of IL-1 (index of proliferation) ([3]; 10 µM)	Proliferation of tymocytes cultured with samples of IL-1 (index of proliferation) ([3]; 20 µM)	Cytosis of L929 cells by samples of TNF ([4]; 5 µM) [%]	Cytosis of L929 cells by samples of TNF ([4]; 10 µM) [%]	Cytosis of L929 cells by samples of TNF ([4]; 20 µM) [%]	other results
72	28	1	CCCCCCCCCCCCCCCCO[C@@H]1O[C@H](CO)[C@@H](O)[C@H](O[C@H](C)C(=O)N[C@@H](C)C(=O)N[C@H](CCC(=O)O)C(N)=O)[C@H]1NC(C)=O [C16H33MDP, β-hexadecylglycoside-MDP]	9.5±1.2	7.7±0.4	5.9±0.8	3.0±0.1	2.6±0.3	3.0±1.0	3.8±0.1	3.9±0.4	3.9±0.1	36±15	40±16	47±10	time at which concentration in the second water phase became significant [6]: 6 h; binding to the cells, more intensive than amphiphilic homologue [7]: 50%; time at which cell-associated radioactivity entered the plateau stage [7]: 2 h
36	64	24	CCCCCCCO[C@@H]1O[C@H](CO)[C@@H](O)[C@H](O[C@H](C)C(=O)N[C@@H](C)C(=O)N[C@H](CCC(=O)O)C(N)=O)[C@H]1NC(C)=O [C7H15MDP, β-heptylglycoside-MDP]	14.5±0.9	16.4±0.6	15.9±1.4	4.4±0.3	4.6±0.3	4.4±0.3	3.8±0.2	3.9±0.2	4.8±0.2	41±2	57±8	62±5	Prolongation of life-span [8, 11]: 101%; Mean life-span ([8]; i.v., 0.5 mg/kg twice a week during 3 weeks, control (PBS i.v.) 36±3): 74 ± 9 days; Tumor node volume at the day 21 after tumor inoculation ([8]; i.v., 0.5 mg/kg, control (PBS i.v.) 736±51): 494±49 mm^3; Inhibition of tumor growth ([8]; i.v., 0.5 mg/kg): 33%; Prolongation of life-span [8, 12]: 70%; Mean life-span ([8]; p.o., 1 mg/kg twice a week during 3 weeks, control (PBS p.o.) 30±4): 51 ± 5 days; Tumor node volume at the day 21 after tumor inoculation ([8]; p.o., 1 mg/kg, control (PBS p.o.) 765±69): 571±65 mm^3; Inhibition of tumor growth ([8]; p.o., 1 mg/kg): 25%; Prolongation of life-span [9, 11]: 62%; Mean life-span ([9]; i.v., 0.5 mg/kg twice a week during 3 weeks, control (PBS i.v.) 39±4): 63 ± 5 days; Tumor node volume at the day 21 after tumor inoculation ([9]; i.v., 0.5 mg/kg, control (PBS i.v.) 789±64): 463±52 mm^3; Inhibition of tumor growth ([9]; i.v., 0.5 mg/kg): 41%; Prolongation of life-span [9, 12]: 19%; Mean life-span ([9]; p.o., 1 mg/kg twice a week during 3 weeks, control (PBS p.o.) 42±6): 50 ± 7 days; Tumor node volume at the day 21 after tumor inoculation ([9]; p.o., 1 mg/kg, control (PBS p.o.) 842±78): 650±73 mm^3; Inhibition of tumor growth ([9]; p.o., 1 mg/kg): 23%; tumor regression [10]: complete regression of tumor was observed in several cases; time to reach a state of equilibrium between concentrations in water phases from both sides of the model membrane ([6]; first to reach equilibrium): 72 h
